From ChEMBL document CHEMBL3352323, “Lead optimization of a pyrazole sulfonamide series of Trypanosoma brucei N-myristoyltransferase inhibitors: identification and evaluation of CNS penetrant compounds as potential treatments for stage 2 human African trypanosomiasis” (J Med Chem, 2014)
The source made the active and inactive calls. The rule behind the calls is not given here.

Experiments:
[1] = test system: MRC5; experiment: cells; conditions: Homo sapiens, MRC5, 69 h
Description: Antiproliferative activity against human MRC5 cells assessed as reduction cell viability incubated for 69 hrs by rezasurin dye based assay

[2] = test system: Trypanosoma brucei; experiment: microbe, parasite or virus in culture; conditions: BSF427, 69 h
Description: Antitrypanosomal activity against Trypanosoma brucei BSF427 expressing VSG118 infected in human MRC5 cells assessed as reduction cell viability incubated for 69 hrs by rezasurin dye based assay

[3] = Selectivity index, IC50 for human N-myristoyltransferase to EC50 for Trypanosoma brucei; format: functional
[4] = Inhibition of Trypanosoma brucei N-myristoyltransferase assessed as transfer of [3H]-myristic acid to a biotinylated substrate peptide (GCGGSKVKPQPPQAK(biotin)-amide by scintillation proximity assay
[5] = molecular target: T1, Glycylpeptide N-tetradecanoyltransferase 1 (Homo sapiens, UniProt P30419); experiment: Inhibition of human N-myristoyltransferase 1 assessed as transfer of [3H]-myristic acid to a biotinylated substrate peptide (GCGGSKVKPQPPQAK(biotin)-amide by scintillation proximity assay
T1 sequence (P30419 whole entry): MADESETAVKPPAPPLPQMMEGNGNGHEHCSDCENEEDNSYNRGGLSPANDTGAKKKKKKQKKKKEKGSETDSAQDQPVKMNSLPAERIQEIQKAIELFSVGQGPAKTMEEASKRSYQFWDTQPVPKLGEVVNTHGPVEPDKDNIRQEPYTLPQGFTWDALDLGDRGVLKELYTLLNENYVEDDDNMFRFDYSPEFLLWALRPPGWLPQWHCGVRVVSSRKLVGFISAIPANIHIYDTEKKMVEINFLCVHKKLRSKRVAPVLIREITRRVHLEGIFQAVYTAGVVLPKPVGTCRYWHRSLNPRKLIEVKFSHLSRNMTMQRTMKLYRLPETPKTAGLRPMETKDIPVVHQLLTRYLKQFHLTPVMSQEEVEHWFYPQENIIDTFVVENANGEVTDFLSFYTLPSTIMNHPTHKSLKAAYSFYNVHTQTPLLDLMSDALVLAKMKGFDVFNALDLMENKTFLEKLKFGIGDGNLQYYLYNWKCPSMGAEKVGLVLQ

[6] = Ratio of drug level in brain to blood in mdr1a-deficient mouse; format: ADME, organism-based; conditions: brain and blood, read-out: BBR
[7] = Ratio of drug level in brain to blood in wild type NMRI mouse at 2 mg free base/kg, iv by UPLC-MS/MS method; format: ADME, organism-based; conditions: brain and blood, read-out: BBR
[8] = test system: Mus musculus; experiment: Toxicity in bloodstream form of Trypanosoma brucei beucei GVR35 infected NMRI mouse stage 2 human African trypanosomiasis model at 50 mg/kg, po bid for 8 days; format: organism-based; parameters: dose 50 mg/kg, route oral; conditions: in vivo, 192 h
[9] = test system: Trypanosoma brucei brucei; experiment: Trypanocidal activity against Trypanosoma brucei beucei S427 infected in NMRI mouse acute model dosed twice daily orally for 4 days; format: functional
[10] = test system: Trypanosoma brucei brucei; experiment: Trypanocidal activity against bloodstream form of Trypanosoma brucei beucei GVR35 infected in NMRI mouse stage 2 human African trypanosomiasis model at 25 mg/kg, po bid for 10 days; format: functional, organism-based; parameters: dose 25 mg/kg
[11] = test system: Trypanosoma brucei brucei; experiment: Trypanocidal activity against Trypanosoma brucei beucei GVR35 infected in NMRI mouse acute model dosed twice daily orally for 4 days; format: functional
[12] = test system: Trypanosoma brucei brucei; experiment: Trypanocidal activity against bloodstream form of Trypanosoma brucei beucei GVR35 infected in NMRI mouse stage 2 human African trypanosomiasis model at 50 mg/kg, po bid for 8 days; format: functional, organism-based; parameters: dose 50 mg/kg
[13] = test system: Mus musculus; experiment: (§1) Maximum tolerated dose in orally twice daily dosed mouse; format: ADME, organism-based; conditions: in vivo, po
[14] = test system: Mus musculus; experiment: Toxicity in bloodstream form of Trypanosoma brucei beucei GVR35 infected NMRI mouse stage 2 human African trypanosomiasis model at 50 mg/kg, po bid for 5 days; format: organism-based; parameters: dose 50 mg/kg, route oral; conditions: in vivo, 120 h
[15] = test system: Trypanosoma brucei rhodesiense; experiment: Trypanocidal activity against bloodstream form of Trypanosoma brucei rhodesiense STIB900 infected in twice daily po dosed mouse; format: functional
[16] = test system: Mus musculus; experiment: AUC (0 to 8 hrs) in NMRI mouse at 10 mg/kg, po by UPLC-MS/MS method; format: ADME, organism-based, Plasma; parameters: time < 8 hr, dose 10 mg/kg, route oral; conditions: in vivo
[17] = test system: Mus musculus; experiment: Oral bioavailability in NMRI mouse at 10 mg/kg by UPLC-MS/MS method; format: ADME, organism-based; conditions: in vivo
[18] = test system: Mus musculus; experiment: Toxicity in bloodstream form of Trypanosoma brucei beucei GVR35 infected NMRI mouse stage 2 human African trypanosomiasis model at 150 mg/kg, po bid for 5 days; format: organism-based; parameters: dose 150 mg/kg, route oral; conditions: in vivo, 120 h
[19] = as §1; format: ADME, organism-based; conditions: in vivo, po
[20] = test system: Mus musculus; experiment: Toxicity in bloodstream form of Trypanosoma brucei beucei GVR35 infected NMRI mouse stage 2 human African trypanosomiasis model at 100 mg/kg, po bid for 5 days; format: organism-based; parameters: dose 100 mg/kg, route oral; conditions: in vivo, 120 h
[21] = test system: Trypanosoma brucei brucei; experiment: Trypanocidal activity against bloodstream form of Trypanosoma brucei beucei GVR35 infected in NMRI mouse stage 2 human African trypanosomiasis model at 100 mg/kg, po bid for 8 days followed by three rounds of 3 day dosing at 100 mg/kg with two day drug holiday between rounds; format: functional, organism-based
[22] = molecular target: Voltage-gated inwardly rectifying potassium channel KCNH2 (Homo sapiens, UniProt Q12809); experiment: Inhibition of human ERG
[23] = test system: Trypanosoma brucei rhodesiense; experiment: Trypanocidal activity against bloodstream form of Trypanosoma brucei rhodesiense STIB900 infected in mouse stage 1 HAT model at 50 mg/kg, po bid for 4 days; format: functional, organism-based; parameters: dose 50 mg/kg
[24] = Plasma protein binding in mouse; format: ADME, organism-based; conditions: read-out: PPB (converted)
[25] = test system: Trypanosoma brucei brucei; experiment: Trypanocidal activity against bloodstream form of Trypanosoma brucei brucei S427 infected in mouse stage 1 HAT model at […], po bid for 4 days; format: functional, organism-based
[26] = test system: Trypanosoma brucei brucei; experiment: Trypanocidal activity against bloodstream form of Trypanosoma brucei beucei GVR35 infected in NMRI mouse stage 2 human African trypanosomiasis model at 150 mg/kg, po bid for 5 days; format: functional, organism-based; parameters: dose 150 mg/kg

Voltage-gated inwardly rectifying potassium channel KCNH2, sequence (Q12809 whole entry): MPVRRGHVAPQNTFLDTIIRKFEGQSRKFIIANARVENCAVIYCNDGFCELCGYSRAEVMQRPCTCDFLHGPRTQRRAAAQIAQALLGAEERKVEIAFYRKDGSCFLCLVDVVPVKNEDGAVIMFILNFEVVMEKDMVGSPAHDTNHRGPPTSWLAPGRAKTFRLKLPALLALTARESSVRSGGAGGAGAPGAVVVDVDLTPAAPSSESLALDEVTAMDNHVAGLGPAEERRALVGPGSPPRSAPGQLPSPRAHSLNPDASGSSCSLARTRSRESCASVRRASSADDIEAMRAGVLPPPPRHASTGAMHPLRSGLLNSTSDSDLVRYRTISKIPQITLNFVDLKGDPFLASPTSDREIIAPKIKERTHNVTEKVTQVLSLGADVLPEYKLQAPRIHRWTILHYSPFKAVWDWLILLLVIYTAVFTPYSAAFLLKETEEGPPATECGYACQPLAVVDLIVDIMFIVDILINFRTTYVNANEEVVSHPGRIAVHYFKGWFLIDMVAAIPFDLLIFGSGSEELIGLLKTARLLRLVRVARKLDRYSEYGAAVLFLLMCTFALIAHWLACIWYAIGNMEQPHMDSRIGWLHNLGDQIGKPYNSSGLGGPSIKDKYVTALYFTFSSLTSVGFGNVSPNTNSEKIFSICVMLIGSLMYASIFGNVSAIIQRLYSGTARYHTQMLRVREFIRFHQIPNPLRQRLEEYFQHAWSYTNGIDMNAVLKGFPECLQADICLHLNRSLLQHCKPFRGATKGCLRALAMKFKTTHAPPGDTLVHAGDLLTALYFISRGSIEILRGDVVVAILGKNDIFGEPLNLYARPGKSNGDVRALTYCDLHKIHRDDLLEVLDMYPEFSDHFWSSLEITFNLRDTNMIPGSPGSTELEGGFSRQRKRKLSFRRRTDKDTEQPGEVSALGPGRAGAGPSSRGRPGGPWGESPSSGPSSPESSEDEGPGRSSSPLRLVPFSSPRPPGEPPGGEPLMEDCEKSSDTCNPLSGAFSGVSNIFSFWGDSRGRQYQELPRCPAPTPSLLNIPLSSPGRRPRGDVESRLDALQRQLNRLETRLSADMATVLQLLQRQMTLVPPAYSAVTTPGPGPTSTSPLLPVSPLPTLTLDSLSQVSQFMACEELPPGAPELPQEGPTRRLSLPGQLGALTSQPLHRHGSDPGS

Row | SMILES | EC50 [1] | EC50 [2] | IC50 [4] | also measured
1 | Cc1nn(C)c(C)c1NS(=O)(=O)c1c(Cl)cc(C#CCN2CCN(C)CC2)cc1Cl | > 50000 nM | 660 nM | 160 nM | Selectivity Index [3]: 7; IC50 [5]: 4600 nM
2 | Cc1nn(C)c(C)c1N(C)S(=O)(=O)c1c(Cl)cc(Br)cc1Cl | 27200 nM | 5100 nM | 330 nM | Kp [6]: 3.7; Kp [7]: 3.7; IC50 [5]: 3580 nM
3 | Cc1c(NS(=O)(=O)c2c(Cl)cc(-c3ccnc(N4CCNCC4)c3)cc2Cl)cnn1C | 1230 nM | 24 nM | – | –
4 | Cc1nn(C)c(C)c1NS(=O)(=O)c1c(Cl)cc(Br)cc1Cl | > 50000 nM | 16000 nM | 500 nM | Kp [6]: < 0.1; Kp [7]: < 0.1; IC50 [5]: 7300 nM
5 | Cc1nn(C)c(C)c1NS(=O)(=O)c1c(Cl)cc(CCCCC2CCN(C)CC2)cc1Cl | 180 nM | 0.5 nM | 1 nM | –
6 | Cc1nn(C)c(C)c1NS(=O)(=O)c1c(Cl)cc(C#Cc2cncn2C)cc1Cl | 16600 nM | 3900 nM | 660 nM | –
7 | Cc1nn(C)cc1NS(=O)(=O)c1c(Cl)cc(-c2ccnc(N3CCNCC3)c2)cc1Cl | 250 nM | 2 nM | 4 nM | –
8 | Cc1nn(C)c(C)c1NS(=O)(=O)c1c(Cl)cc(CCCC2CCNCC2)cc1Cl | 2500 nM | 2 nM | 2 nM | –
9 | Cc1nn(C)c(C)c1NS(=O)(=O)c1c(Cl)cc(CCCN2CCN(C)CC2)cc1Cl | 31400 nM | – | 3 nM | –
10 | Cc1nn(C)c(C)c1N(C(F)F)S(=O)(=O)c1c(Cl)cc(CCCCC2CCN(C)CC2)cc1Cl | – | – | – | Activity [8]: Toxic; MCD [9]: 6 mg/kg; inhibition [10]: inactive; MCD [11]: 25 mg/kg; inhibition [12]: inactive; MTD [13]: 50 mg/kg; Activity [14]: Toxic
11 | Cc1nn(C)c(C)c1NS(=O)(=O)c1ccc(CCCCC2CCN(C)CC2)cc1 | 3600 nM | 16 nM | 3 nM | –
12 | Cc1nn(C)c(C)c1NS(=O)(=O)c1ccc(CCCC2CCN(C)CC2)cc1 | 18700 nM | 30 nM | 7 nM | –
13 | Cn1cc(NS(=O)(=O)c2c(Cl)cc(-c3ccnc(N4CCNCC4)c3)cc2Cl)cn1 | 10300 nM | 370 nM | – | –
14 | Cc1c(NS(=O)(=O)c2c(Cl)cc(-c3ccnc(N4CCNCC4)c3)cc2Cl)c(CC(C)C)nn1C [ZELENIRSTAT] | – | – | – | MCD [15]: 6 mg/kg; AUC [16]: 3400 µg/min/mL; F [17]: 93%
15 | Cc1nn(C)c(C)c1N(C(F)F)S(=O)(=O)c1c(Cl)cc(CCCOC[C@@H]2CCCCN2C)cc1Cl | 3900 nM | – | 2 nM | –
16 | Cc1nn(C)c(C)c1NS(=O)(=O)c1c(Cl)cc(CCCCC2CCNCC2)cc1Cl | 370 nM | 0.6 nM | 3 nM | –
17 | Cc1nn(C)c(C)c1NS(=O)(=O)c1ccc(CCCN2CCN(C)CC2)cc1 | > 50000 nM | 750 nM | 120 nM | Selectivity Index [3]: 4.7; IC50 [5]: 3500 nM
18 | Cc1nn(C)c(C)c1N(C(F)F)S(=O)(=O)c1c(Cl)cc(CCCOC[C@@H]2CCCN2C)cc1Cl | 2800 nM | – | 2 nM | –
19 | Cc1nn(C)c(C)c1N(C(F)F)S(=O)(=O)c1c(Cl)cc(CCCOC[C@H]2CCCCN2C)cc1Cl | 3500 nM | – | 2 nM | –
20 | Cc1nn(C)c(C)c1N(C(F)F)S(=O)(=O)c1c(Cl)cc(CCCN2CCN3CCC[C@@H]3C2)cc1Cl | 3100 nM | – | 2 nM | –
21 | Cc1nn(C)c(C)c1N(CC(F)(F)F)[S+](=O)([O-])c1c(Cl)cc(CCCC2CCN(C)CC2)cc1Cl | – | – | – | Activity [18]: Non-toxic; MTD [19]: 150 mg/kg
22 | Cc1nn(C)c(C)c1N(C(F)F)S(=O)(=O)c1c(Cl)cc(CCCOC[C@H]2CCCN2C)cc1Cl | 3200 nM | – | 2 nM | –
23 | Cc1nn(C)c(C)c1NS(=O)(=O)c1c(Cl)cc(CCCC2CCN(C)CC2)cc1Cl | 2200 nM | 2 nM | 2 nM | –
24 | Cc1nn(C)c(C)c1N(C(F)F)S(=O)(=O)c1c(Cl)cc(CCCC2CCN(C)CC2)cc1Cl | – | – | – | Activity [20]: Toxic; inhibition [21]: Active; MTD [13]: 100 mg/kg; IC50 [22]: 600 nM
25 | Cc1nn(C)c(C)c1NS(=O)(=O)c1c(Cl)cc(-c2ccnc(N3CCNCC3)c2)cc1Cl | – | – | – | Activity [23]: Active; MCD [15]: 50 mg/kg; AUC [16]: 392 µg/min/mL; fraction unbound [24]: 0.06; F [17]: 20%; Activity [25]: Active
26 | Cc1nn(C)c(C)c1NS(=O)(=O)c1ccc(CCCC2CCNCC2)cc1 | > 50000 nM | 110 nM | 9 nM | –
27 | Cc1nn(C)c(CC(C)C)c1NS(=O)(=O)c1c(Cl)cc(-c2ccnc(N3CCNCC3)c2)cc1Cl | 640 nM | 5 nM | 6 nM | –
28 | Cc1nn(C)c(C)c1NS(=O)(=O)c1ccc(CCCCC2CCNCC2)cc1 | 5300 nM | 9 nM | 6 nM | –
29 | Cc1nn(C)c(C)c1N(CC(F)(F)F)S(=O)(=O)c1c(Cl)cc(CCCC2CCN(C)CC2)cc1Cl | – | – | – | inhibition [26]: inactive
